Measured values taken from US5093519A, “Vitamin D derivatives: therapeutic applications and applications to assays of metabolities of vitamin D” (priority 1988, dated 1992).
Like-named read-outs stand apart in the source and are kept apart here.

Key:
[1] = system: vitamin D-binding protein (DBP); settings: background knowledge, cited from earlier work
human lymphocytes = test: Inhibition of proliferation of PHA-stimulated human lymphocytes; format: cell-based; settings: for inhibition of lymphocyte proliferation (in words): compound alone; for antagonist effect in lymphocyte proliferation test: 10^-10 M derivative added to 1,25-(OH)2 -vitamin D3; for inhibition of lymphocyte proliferation, less active than 1,25-(OH)2 -vitamin D3: fold less active than 1,25-(OH)2 -vitamin D3
From the text: For example, if the proliferative response of human lymphocytes stimulated with PHA is 100 in the absence of vitamin D3, it is reduced to 66.5 in the presence of 10^-11 M 1,25-(OH)2 -vitamin D3 (Table 1). In the same test, the addition of 11-(2-hydroxyethyl)-1,25-(OH)2 -D3 induces no inhibition at 10^-10 M (102.6).
(§1) Bibliographic References 21, 22 and 23 served as references for the methodology of the tests of binding to DBP and to the receptor, and of the test of inhibition of lymphocyte proliferation.

HL 60 cells = test: Differentiation of HL 60 leukemic cells in vitro; format: cell-based; settings: in words
From the text: This is, in effect, directly confirmed in various biological tests (induction of the differentiation HL 60 leukemic cells, inhibition of lymphocyte proliferation, modification of the proliferation of cancer cells, calciotropic effect, and the like). FIGS. (3-4) illustrate the effect of different analogs on the differentiation of HL 60 leukemic cells.

[2] = background knowledge, cited from earlier work
[3] = system: intracellular receptor of vitamin D; settings: background knowledge; cited from earlier work
[4] = biological target: T1, intracellular receptor for vitamin D (Rattus norvegicus, UniProt P13053); test: Binding to the intracellular receptor for vitamin D, displacement of [^3 H]-1,25-(OH)2 -vitamin D3 (rat duodenum); settings: in words
T1 construct: from tissue; host or cells: rat duodenum
T1 sequence (P13053 1-423): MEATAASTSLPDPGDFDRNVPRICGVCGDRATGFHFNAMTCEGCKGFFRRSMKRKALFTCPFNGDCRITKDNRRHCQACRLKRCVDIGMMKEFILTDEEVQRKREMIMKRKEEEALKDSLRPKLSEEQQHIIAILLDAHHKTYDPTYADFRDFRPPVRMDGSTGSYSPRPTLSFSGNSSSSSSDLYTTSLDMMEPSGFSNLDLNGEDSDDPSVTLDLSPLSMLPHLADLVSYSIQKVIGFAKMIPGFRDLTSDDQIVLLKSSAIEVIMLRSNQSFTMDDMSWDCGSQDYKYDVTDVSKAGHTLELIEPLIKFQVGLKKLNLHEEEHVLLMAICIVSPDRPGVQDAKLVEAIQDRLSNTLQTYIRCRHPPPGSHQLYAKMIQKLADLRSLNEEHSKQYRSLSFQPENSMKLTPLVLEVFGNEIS
From the text: Binding of 1,25-(OH)2 -vitamin D and two C^11 -derivatives to the intracellular receptor for vitamin D, measured by displacement of the binding of the tracer ]^3 H]-1,25-(OH)2 -vitamin D3.
The affinity, however, is approximately 100- to 200-fold lower than that of 1,25-(OH)2 -vitamin D3. This experiment is reproducible with receptors of different origins (rat duodenum in the example illustrated, but also calf thymus, human lymphocytes, and the like).
as §1

purified human DBP = biological target: T2, purified human DBP (Homo sapiens, UniProt P02774); test: Binding to purified human DBP, displacement of [^3 H]-25-OH-vitamin D3; settings: in words; FIG. 1
T2 construct: displacement of [3H]-25-OH-vitamin D3
T2 sequence (P02774 17-474): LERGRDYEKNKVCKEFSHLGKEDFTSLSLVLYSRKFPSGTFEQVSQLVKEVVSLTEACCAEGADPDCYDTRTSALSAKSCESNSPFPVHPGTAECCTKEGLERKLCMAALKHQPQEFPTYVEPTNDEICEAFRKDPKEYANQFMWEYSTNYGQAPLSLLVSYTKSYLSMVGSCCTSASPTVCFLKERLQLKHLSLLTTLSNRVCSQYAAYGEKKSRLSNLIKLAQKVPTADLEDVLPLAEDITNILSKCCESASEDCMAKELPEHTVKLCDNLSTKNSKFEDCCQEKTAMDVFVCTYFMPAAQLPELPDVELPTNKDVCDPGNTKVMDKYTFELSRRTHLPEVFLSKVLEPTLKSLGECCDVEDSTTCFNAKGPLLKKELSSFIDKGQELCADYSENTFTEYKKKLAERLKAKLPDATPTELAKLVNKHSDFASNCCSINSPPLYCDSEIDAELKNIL
From the text: Binding to purified human DBP of 25-OH-vitamin D3, 1,25-(OH)2 -vitamin D3 and some C^11 -derivatives of these molecules, measured by displacement of the binding of the tracer [^3 H]-25-OH-vitamin D3.
This affinity is not modified with an 11-hydroxyethyl derivative. […] This property has been turned to good account for obtaining analogs which can be iodinated via their branch at C^11, and these derivatives have been used successfully, for example, for developing the first specific assay for 25-OH-vitamin D3 using an iodinated tracer.
as §1

C=C1/C(=C\C=C2/CCC[C@]3(C)[C@@H]([C@H](C)CCCC(C)(C)O)CC[C@@H]23)C[C@@H](O)C[C@@H]1O [1,25-(OH)2-vitamin D3]
affinity for DBP [1]: lower affinity
affinity for DBP ([1]; listed as 1α,25-(OH)2 -vitamin D): low affinity
lymphocyte proliferation (human lymphocytes; 1,25-(OH)2 -vitamin D3 10^-11 M alone, 100% in absence of vitamin D3, 1e-05 µM): 66.5%
lymphocyte proliferation (human lymphocytes; 1,25-(OH)2 -vitamin D3 10^-12 M alone, 100% in absence of vitamin D3, 1e-06 µM): 93.8%
inhibition of lymphocyte proliferation (in words) (human lymphocytes): marked inhibition of proliferation
biological activity in a test of differentiation of HL 60 cells (HL 60 cells; FIGS. 3-4): active
half-life [2]: short half-life
therapeutic index ([2]; listed as 1,25-(OH)2)-vitamin D): very narrow therapeutic index
therapeutic index ([2]; listed as 1,25-(OH)2 -Vitamin D): narrow
affinity for the intracellular receptor of vitamin D [3]: high affinity

C=C1/C(=C\C=C2/C[C@H](CCOC(=O)CCC(=O)O)C[C@]3(C)[C@@H]([C@H](C)CCCC(C)(C)O)CC[C@@H]23)C[C@@H](O)C[C@@H]1O [11β-(2-hemisuccinoyloxyethyl)]
binding to the vitamin D3 receptor ([4]; FIG. 2): bind the vitamin D3 receptor

C=C1CC[C@H](O)C/C1=C/C=C1\CCC[C@]2(C)[C@@H]([C@H](C)CCCC(C)(C)O)CC[C@@H]12 [25-OH-vitamin D3]
affinity for DBP [1]: high affinity
biological activity in a test of differentiation of HL 60 cells (HL 60 cells; FIGS. 3-4): of low activity
affinity for the intracellular receptor of vitamin D [3]: low affinity

C=C1/C(=C\C=C2/C[C@H](C)C[C@]3(C)[C@@H]([C@H](C)CCCC(C)(C)O)CC[C@@H]23)C[C@@H](O)C[C@@H]1O [compound 47, 1α,25-(OH)2-11α-methylvitamin D3]
binding to the vitamin D3 receptor ([4]; FIG. 2): affinity comparable to unsubstituted 1,25-(OH)2 -vitamin D3
biological activity in a test of differentiation of HL 60 cells (HL 60 cells; FIGS. 3-4, listed as 11α-methyl-1,25-(OH)2 -vitamin D3): strong activity, approaching that of 1,25-(OH)2 -vitamin D3
biological activity in a test of differentiation of HL 60 cells (HL 60 cells; FIGS. 3-4, listed as methyl derivative): very active

C=C1/C(=C\C=C2/C[C@H](c3ccccc3)C[C@]3(C)[C@@H]([C@H](C)CCCC(C)(C)O)CC[C@@H]23)C[C@@H](O)C[C@@H]1O [compound 48, 1α,25-(OH)2-11α-phenylvitamin D3]
binding to the vitamin D3 receptor ([4]; FIG. 2): binds the receptor better than the 11α-hydroxyethyl derivatives
biological activity in a test of differentiation of HL 60 cells (HL 60 cells; FIGS. 3-4, listed as 11α-phenyl-1,25-(OH)2 -vitamin D3): active
biological activity in a test of differentiation of HL 60 cells (HL 60 cells; FIGS. 3-4, listed as phenyl derivative): moderately active

C=C1/C(=C\C=C2/C[C@H](CCO)C[C@]3(C)[C@@H]([C@H](C)CCCC(C)(C)O)CC[C@@H]23)C[C@@H](O)C[C@@H]1O [compound 49, 11α-(2-OH-ethyl)-1,25-(OH)2-vitamin D3]
binding to the vitamin D3 receptor ([4]; FIG. 2, listed as 11α-(hydroxyethyl)): bind the vitamin D3 receptor
binding to the vitamin D3 receptor ([4]; FIG. 2, listed as 11α-(hydroxyethyl)-1,25-(OH)2 -vitamin D3): comparable
binding to purified human DBP (purified human DBP): not modified
antagonist effect in lymphocyte proliferation test (human lymphocytes; listed as 11-(2-hydroxyethyl)-1,25-(OH)2 -D3): antagonizes its inhibitory effect
antagonist effect in lymphocyte proliferation test (human lymphocytes; listed as 11-(OH-ethyl) derivative): behaves as a partial antagonist of vitamin D3
lymphocyte proliferation (human lymphocytes; 11-(2-OH-Ethyl) derivative 10^-10 M + 1,25-(OH)2 -vitamin D3 10^-11 M, 0.0001 µM): 91.8%
lymphocyte proliferation (human lymphocytes; 11-(2-OH-Ethyl) derivative 10^-10 M + 1,25-(OH)2 -vitamin D3 10^-12 M, 0.0001 µM): 98.5%
activity at 0.0001 µM (human lymphocytes; Homo sapiens, Lymphocyte, 10^-10 M alone, response is 100 in the absence of vitamin D3, read-out: proliferative response of lymphocytes): 103%
inhibition of lymphocyte proliferation (in words) (human lymphocytes): no inhibition
inhibition of lymphocyte proliferation, less active than 1,25-(OH)2 -vitamin D3 (human lymphocytes): 100 fold
biological activity in a test of differentiation of HL 60 cells (HL 60 cells; FIGS. 3-4): of low activity

C=C1/C(=C\C=C2/C[C@H](CCOC(=O)CCC(=O)O)C[C@]3(C)[C@@H]([C@H](C)CCCC(C)(C)O)CC[C@@H]23)C[C@@H](O)C[C@@H]1O [compound 50, 11α-(2-HS-ethyl)-1,25-(OH)2-vitamin D3]
binding to the vitamin D3 receptor ([4]; FIG. 2, listed as 11α-(2-hemisuccinoyloxyethyl vitamin D3)): comparable
inhibition of lymphocyte proliferation, less active than 1,25-(OH)2 -vitamin D3 (human lymphocytes): approximately 1000 fold

C=C1CCC(O)CC1=CC=C1CC(CCO)CC2(C)C1CCC2C(C)CCCC(C)(C)O (centres unmarked) [compound 56, 11-(2-hydroxyethyl)-25-OH-vitamin D3]
biological activity in a test of differentiation of HL 60 cells (HL 60 cells; FIGS. 3-4): of low activity

C=C1CC[C@H](O)C/C1=C/C=C1\C[C@H](CCOC(=O)CCC(=O)O)C[C@]2(C)[C@@H]([C@H](C)CCCC(C)(C)O)CC[C@@H]12 [compound 57, 11-(2-HS-ethyl)-25-OH-vitamin D3]
binding to purified human DBP (purified human DBP): does not necessarily modify this affinity substantially
